Assay: Human HepG2 cell viability assay in 384 well format
Type: toxicity, cell-based
Set-up: dose 125 nL, time 70.5 hour; cytotoxicity at 70.5 h: concentration not given beside the values
Conditions: HepG2 cells, read-out: Inhibition

SMILES | cytotoxicity at 70.5 h [%]
Nc1cc2c(nn1)CCN(C(=O)c1csc(-c3cccs3)n1)C2 | -6.75
Cc1nc(C(=O)NC2CCN(CCOc3ccc(Br)cc3)CC2)cs1 | 1.52
Cc1nc(-c2ccccc2)sc1CSC(C)C(N)=O (centres undefined) | -1.25
CCOCc1cnc2n1CCN(C(=O)c1ccoc1C)C2C (centres undefined) | 9.87
COCC(=O)N1CCO[C@]2(CCC[C@H]2COC)C1 | 9.79
O=C([C@H]1C[C@@H]2CN(c3ncc(F)cn3)C[C@H]1O2)N1CCOCC1 | -7.72
Cc1ncnc2c1CCN(S(=O)(=O)C1CC1)CC2 | -13.2
CS(=O)(=O)NCc1noc2c1CN(C(=O)C1CCC1)CC2 | -8.52
CNC(=O)CC1CC2(CCNCC2)c2cc(F)ccc21 (centres undefined) | -3.61
c1cncc(CN2CCn3cc(CN4CCCCC4)nc3C2)c1 | -5.48
O=S(=O)(C1CC1)N1CCc2ncnc(N3CCOCC3)c2CC1 | -7.75
CCOCC1c2c(ncn2C)CCN1C(=O)c1cscn1 (centres undefined) | 21.3
OCCN1CCC(F)(F)C2(CCN(c3cccnc3)C2)C1 (centres undefined) | -6.87
COCC(=O)NC1CC2(CCN(CCN(C)C)CC2)c2ccccc21 (centres undefined) | -2.09
O=C([C@H]1CCCO1)N1CC[C@H](O)[C@@H]1Cc1cccnc1 | -4.15
O=C(C1=CCCC1)N1C[C@@H]2COC[C@]2(COCC2CC2)C1 | -6.62
O=C(C1CC=CC1)N1CC[C@@H](O)[C@H]1Cc1cccnc1 | 1.93
CCO[C@H]1CC[C@H]2[C@H]1OCCN2C(=O)COc1ccccc1 | -4.98
O=C(c1cocn1)N1C[C@@H]2COC[C@]2(COc2cccnc2)C1 | -4.92
CC(C)CC(=O)N1CC[C@@H]2CN(Cc3cccnc3)S(=O)(=O)[C@@H]2CC1 | -4.78
CNC(=O)N1CC[C@@H]2CN(Cc3ccccc3)S(=O)(=O)[C@@H]2CC1 | -6.18
CN(C)CCN1CCO[C@@H]2CN(C(=O)Cc3ccsc3)CC[C@@H]2C1 | -8.58
COCC(=O)N1C[C@H](N(C)Cc2cncnc2)[C@H]2OCCC[C@H]21 | -8.78
Cn1ccc(-c2cc(C(=O)N3CCC(C(N)=O)CC3)c3ccccn23)n1 | -8.35
O=S(=O)(C1CC1)N1CCC2(COCc3cnc(-c4cccnc4)nc32)C1 (centres undefined) | -10.6
CS(=O)(=O)N1CCO[C@@H]2CN(C(=O)Cc3cccs3)CC[C@@H]2C1 | -9.17

SMILES | cytotoxicity at 70.5 h [%]
O=C(CC1CC1)N1CCC2(COCc3cnc(-c4cccnc4)nc32)C1 (centres undefined) | -2.06
Cn1cccc1C(=O)N1C[C@@H]2C[C@@H](c3nnc(C4CC4)o3)O[C@@H]2C1 | -3.51
NC(=O)N1C[C@H](NC(=O)c2cscn2)[C@@H]2OCCC[C@@H]21 | -6.33
CS(=O)(=O)N1C[C@H](NC(=O)c2ccno2)[C@@H]2OCCC[C@@H]21 | -7.45
CN(Cc1cccnc1)[C@@H]1CN(C(=O)c2ccco2)[C@@H]2CCCO[C@H]12 | -10.7
Cn1cc(CN2CCC3(CC2)CN(c2cccnc2)C(=O)CO3)cn1 | -5.12
Cc1occc1C(=O)N1CC[C@H]2C[C@@H](c3nnc(C4CC4)o3)O[C@@H]2C1 | -12
O=C(c1cccs1)N1CC[C@H]2C[C@@H](c3nnc(C4CC4)o3)O[C@@H]2C1 | -7
Cn1ccc(-c2cc(C(=O)N3CCC(O)CC3)c3ccccn23)n1 | 29.8
CC(Cn1ccnc1)NCc1csc2c1CCCC2 (centres undefined) | -0.368
Cc1cc(C)n(Cc2cc(C(=O)N3CCCCC3c3nccs3)n[nH]2)n1 (centres undefined) | 8.98
CC(C)C1CN(c2ncccn2)CCC(=O)N1CC1CC1 (centres undefined) | 36.1
CSc1ccccc1NC(=O)CCC(=O)N(C)C1CCN(C)CC1 | -0.551
O=C(NCc1ccc(Cl)s1)c1cc(CN2CCCC(O)C2)on1 (centres undefined) | 19.4
COC(=O)c1ccc2ccn(CC3COCCO3)c(=O)c2c1 (centres undefined) | -8.18
Nc1ccnc(N2CCCC(CO)(Cc3cccc(Cl)c3)C2)n1 (centres undefined) | 6.17
CCc1noc(CNc2nc(-c3cccnc3)nc3c2CCNCC3)n1 | -14.3
COc1ccc(Cc2ncc3c(n2)CN(C(=O)CO)C3)cc1 | -6.42
Cc1nc(C(C)Nc2nc3c(s2)c(C)nn3C)n[nH]1 (centres undefined) | 15.8
CCN1CCC(CC(=O)NCC(O)c2ccc3ccccc3c2)CC1 (centres undefined) | 9.43
CCN(C)C(=O)c1ccc(N(C)Cc2cc(-c3ccncc3)no2)nc1 | -2.26
CC(C)Oc1cc(N2CCC(C(N)=O)CC2)nc(N)n1 | -3.58
CS(=O)(=O)Nc1ccc(-n2c(CCCO)nc3ccccc32)cn1 | 0.667
CCCn1ncc(C(=O)N2CCC(N3CCCCC3)CC2)c1C | -11.6
CCc1ncc(CN2CCN(c3cc(NC4CC4)nc(N)n3)CC2)cn1 | -15
COc1ccc(CN(C)c2ccc(-c3nccn3C)nn2)cc1OC | -5.32

SMILES | cytotoxicity at 70.5 h [%]
COc1cc(Cl)cc(CN2CCCC(N3CCOCC3)C2)c1OC (centres undefined) | -5.79
CCn1c(CN(C)C)nnc1C1CCN(Cc2ccccn2)CC1 | 20.6
O=c1n(Cc2ccccn2)nc(C2CCNCC2)n1Cc1ccccc1 | 1.51
Cn1nc(CN2CCCCC(N)C2)c2c(Cl)cccc21 (centres undefined) | 36.9
Cc1noc(C)c1CN1C(=O)[C@H]2CC[C@@H]1CN(Cc1ccc(Cl)cc1)C2 | 8.52
Cc1nc(C2CCN(C(=O)COC(C)C)CC2)cc(N2CCOCC2)n1 | -8.64
COc1cc(C)ccc1C(=O)N1C[C@@H](CN(C)CCO)[C@@H](CO)C1 | 4.4
CCC[C@@H]1CN(C(=O)c2ccccc2C(C)=O)C[C@H]1N(C)C | 7.99
CCOCCC(=O)N1CCCN(c2ccccc2C)CC1 | -4.5
O=C(NCc1ccncc1)C1CN(c2nc3ccccc3s2)CCN1 (centres undefined) | -0.512
CN(C)CCNC(=O)c1ccc(OC2CCN(CC3CC3)CC2)c(Cl)c1 | 0.798
Cc1nc2cc(CNC(=O)C3CC(=O)N(CCN(C)C)C3)ccc2n1C (centres undefined) | -2.99
COCCN(C)C[C@@H]1CN(C(=O)C(C)(C)c2ccccc2)C[C@@H]1CO | 12.6
CS(=O)(=O)NC1CCN(Cc2ccc(OCc3ccccn3)cc2)CC1 | -5.51
Fc1ccccc1-c1cc(N2[C@@H]3CC[C@H]2CNC3)n2nccc2n1 | -3.67
CCOc1ccccc1CC(=O)N1C[C@@H](C(=O)O)[C@H](c2ccncc2)C1 | 37.4
CN(C)C(=O)COC1COC2(CCN(CC3CCOCC3)CC2)C1 (centres undefined) | -4.78
COC1COC2(CCN(CC3CCOCC3)CC2)C1 (centres undefined) | -11.1
CN1CCN(c2ncnc3c2CCN(S(=O)(=O)C2CC2)CC3)CC1 | -11.6
CCc1cnc(N2C[C@H]3C[C@H](C(=O)N4CCOCC4)[C@@H](C2)O3)nc1 | -6.74
Cc1ccccc1CN1C[C@@H]2COC[C@]2(CNC(=O)C2CCC2)C1 | -7.13
CO[C@H]1CN(CC2CC2)[C@@H]2CCCO[C@H]12 | -9.81
CCOCC1c2c(ncn2C)CCN1C(=O)c1cnc(C)cn1 (centres undefined) | -12
Cc1occc1C(=O)N1CCC2(CCN(C(=O)c3cccnc3)C2)CC1 | 5.51
COCC(=O)NCc1cc(=O)n2c(n1)CN(CC1CC1)CCC2 | 0.0162
COc1nn(C)c2c1CCCN(C(=O)c1cccc3cccnc13)C2 | -4.18

SMILES | cytotoxicity at 70.5 h [%]
c1cc(COC[C@H]2CCC[C@]23CNCCO3)ccn1 | 0.216
O=C(COc1ccccc1)N1C[C@@H]2COC[C@]2(COc2cccnc2)C1 | 4.76
O=C(c1ccc(F)cc1)N1C[C@@H]2COC[C@]2(COc2cccnc2)C1 | 14.6
O=C(NC1CCCC1)[C@@H]1C[C@@H]2CCN(Cc3ccoc3)C[C@H]2O1 | -10
CC(C)N1CCO[C@@H]2CN(C(=O)Cc3cccs3)CC[C@@H]2C1 | -6.99
O=C([C@@H]1C[C@@H]2CCN(Cc3ccoc3)C[C@H]2O1)N1CCCC1 | -2.05
O=C(N1CCCC1)N1CCC2(CC1)CN(c1cccnc1)C(=O)CO2 | -6.88
c1cc(CN2CCO[C@H]3[C@H](OCC4CCOCC4)CC[C@@H]32)co1 | -9.4
O=C(N[C@@H]1CN(CC2CC2)[C@@H]2CCCO[C@@H]21)c1cscn1 | -1.52
CC(C)NC(=O)[C@@H]1C[C@@H]2CCN(Cc3ccoc3)C[C@H]2O1 | 0.151
O=C(NC1CC1)[C@@H]1C[C@@H]2CCN(Cc3ccoc3)C[C@@H]2O1 | -8.25
CN(C)CCO[C@H]1CN(CC2CC2)[C@@H]2CCCO[C@H]12 | 11.6
COCC1CC2(CCN(c3cccc(C)n3)CC2)CN1C(C)C (centres undefined) | -8.05
CS(=O)(=O)NCc1cn2c(n1)CN(Cc1cccnc1)CC2 | 9.87
CN(C)CCn1c2c(ccc1=O)CC(NCc1cnn(C)c1)CC2 (centres undefined) | -8.72
Cc1cccc(CN2C[C@H](OCc3ccccn3)[C@H]3COC[C@H]32)n1 | 5.07
Cn1ccnc1CN1CCC(F)(F)C2(CCN(c3cccnc3)C2)C1 (centres undefined) | -8.56
c1cncc(COC[C@@H]2CCC[C@]23CNCCO3)c1 | 0.77
Cc1ccc(CN2C[C@@H](OCc3ccccn3)[C@H]3COC[C@H]32)o1 | -5
Fc1ccc(CN2C[C@@H](OCc3ccccn3)[C@H]3COC[C@H]32)cc1 | -1.1
Cc1cccc(CN2CCC3(CC2)CN(c2cccnc2)C(=O)CO3)n1 | -4.77
c1cc(CO[C@H]2CC[C@H]3[C@H]2OCCN3Cc2nccs2)ccn1 | -2.27
Fc1ccc(CN2CCO[C@H]3[C@H](OCc4ccncc4)CC[C@@H]32)cc1 | 55.8
FC1(F)CCN(Cc2cccnc2)CC12CCN(c1ccccc1)C2 (centres undefined) | -1.56
c1ccc(CO[C@@H]2CN(Cc3cccnc3)[C@@H]3COC[C@@H]32)nc1 | 5.82
CN(C)CCN1CCC2(CC1)CN(Cc1cccnc1)C(=O)CO2 | -4.21

— ChEMBL document CHEMBL3507680, “University of Dundee, Gates Library screen for HepG2 cell viability”
